#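 Interpolation was linear, between the two tested concentrations surrounding the appropriate level; five concentrations were tested over 48 hours in 96-well plates. GI50 is the concentration that inhibits growth by half.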 Active and inactive are the calls of the source. Cut-off read from the data, not from the text of the source: active = GI50 up to about 1.1 µM and inactive = higher.
# What was measured:
# Experiment in all cases: NCI anticancer screen, dose series, 48 h
# SK-MEL-28 = system: SK-MEL-28
# LOX IMVI = system: LOX IMVI
# HOP-62 = system: HOP-62
# A549 = system: A549
# K562 = system: K562
# DU-145 = system: DU-145
# A498 = system: A498
# MDA-MB-231 = system: MDA-MB-231
# HOP-92 = system: HOP-92
# UO-31 = system: UO-31
# RXF 393 = system: RXF 393
# BT-549 = system: BT-549
# NCI-H23 = system: NCI-H23
# OVCAR-5 = system: OVCAR-5
# MDA-N = system: MDA-N
# IGROV-1 = system: IGROV-1
# NCI-H226 = system: NCI-H226
# SF-539 = system: SF-539
# EKVX = system: EKVX
# RPMI-8226 = system: RPMI-8226
# 786-0 = system: 786-0
# HCT-116 = system: HCT-116
# HCT-15 = system: HCT-15
# SNB-75 = system: SNB-75
# NCI-H460 = system: NCI-H460
# ACHN = system: ACHN
# UACC-62 = system: UACC-62
# Hs-578T = system: Hs-578T
# SW-620 = system: SW-620
# SF-295 = system: SF-295
# CAKI-1 = system: CAKI-1
# NCI/ADR-RES = system: NCI/ADR-RES
# OVCAR-8 = system: OVCAR-8
# M14 = system: M14
# HT-29 = system: HT-29
# KM12 = system: KM12
# Malme-3M = system: Malme-3M
# SF-268 = system: SF-268
# PC-3 = system: PC-3
# NCI-H522 = system: NCI-H522
# T47D = system: T47D
# HCC 2998 = system: HCC 2998
# UACC-257 = system: UACC-257
# SK-OV-3 = system: SK-OV-3
# MDA-MB-435 = system: MDA-MB-435
# HL-60 = system: HL-60
# OVCAR-4 = system: OVCAR-4
# U-251 = system: U-251
# SK-MEL-5 = system: SK-MEL-5
# OVCAR-3 = system: OVCAR-3
# SR = system: SR
# TK-10 = system: TK-10
# COLO 205 = system: COLO 205
# CCRF-CEM = system: CCRF-CEM
# MOLT-4 = system: MOLT-4
# SN12C = system: SN12C
# SK-MEL-2 = system: SK-MEL-2
# SNB-19 = system: SNB-19
compound,measurement,setting,value
O=c1oc2ccccc2cc1-c1nc2ccccc2s1,GI50,SK-MEL-28,21.2 µM (inactive)
same,GI50,LOX IMVI,10.1 µM (inactive)
same,GI50,HOP-62,6.14 µM (inactive)
same,GI50,A549,4.94 µM (inactive)
same,GI50,K562,3.61 µM (inactive)
same,GI50,DU-145,14.2 µM (inactive)
same,GI50,A498,13.4 µM (inactive)
same,GI50,MDA-MB-231,12 µM (inactive)
same,GI50,HOP-92,6.65 µM (inactive)
same,GI50,UO-31,5.83 µM (inactive)
same,GI50,RXF 393,11.3 µM (inactive)
same,GI50,BT-549,17.2 µM (inactive)
same,GI50,NCI-H23,15.6 µM (inactive)
same,GI50,OVCAR-5,23.3 µM (inactive)
same,GI50,MDA-N,15.2 µM (inactive)
same,GI50,IGROV-1,3.33 µM (inactive)
same,GI50,NCI-H226,14.6 µM (inactive)
same,GI50,SF-539,2.89 µM (inactive)
same,GI50,EKVX,11.5 µM (inactive)
same,GI50,RPMI-8226,2.79 µM (inactive)
same,GI50,786-0,4.58 µM (inactive)
same,GI50,HCT-116,5.08 µM (inactive)
same,GI50,HCT-15,29.6 µM
same,GI50,SNB-75,6.3 µM (inactive)
same,GI50,NCI-H460,7.45 µM (inactive)
same,GI50,ACHN,3.51 µM (inactive)
same,GI50,UACC-62,14.6 µM (inactive)
same,GI50,Hs-578T,6.55 µM (inactive)
same,GI50,SW-620,14.3 µM (inactive)
same,GI50,SF-295,8.57 µM (inactive)
same,GI50,CAKI-1,4.92 µM (inactive)
same,GI50,NCI/ADR-RES,10 µM (inactive)
same,GI50,OVCAR-8,7.74 µM (inactive)
same,GI50,M14,16.5 µM (inactive)
same,GI50,HT-29,11.2 µM (inactive)
same,GI50,KM12,6.89 µM (inactive)
same,GI50,Malme-3M,2.2 µM (inactive)
same,GI50,SF-268,8.73 µM (inactive)
same,GI50,PC-3,17.2 µM (inactive)
same,GI50,NCI-H522,6.47 µM (inactive)
same,GI50,T47D,10.7 µM (inactive)
same,GI50,HCC 2998,37.2 µM (inactive)
same,GI50,UACC-257,28.1 µM (inactive)
same,GI50,SK-OV-3,10.1 µM (inactive)
same,GI50,MDA-MB-435,5.36 µM (inactive)
same,GI50,HL-60,> 100 µM (inactive)
same,GI50,OVCAR-4,11.6 µM (inactive)
same,GI50,U-251,7.35 µM (inactive)
same,GI50,SK-MEL-5,19 µM (inactive)
same,GI50,OVCAR-3,6.4 µM (inactive)
same,GI50,SR,0.491 µM (active)
same,GI50,TK-10,12.6 µM (inactive)
same,GI50,COLO 205,23.2 µM (inactive)
CC(C)=CC1C(COC(=O)c2ccccc2Cl)C1(C)C (stereo not drawn),GI50,SK-MEL-28,> 100 µM (inactive)
same,GI50,LOX IMVI,20.2 µM (inactive)
same,GI50,HOP-62,38.4 µM (inactive)
same,GI50,A549,36.9 µM (inactive)
same,GI50,K562,34 µM (inactive)
same,GI50,DU-145,32.8 µM (inactive)
same,GI50,A498,> 100 µM (inactive)
same,GI50,MDA-MB-231,49.7 µM (inactive)
same,GI50,HOP-92,28.4 µM (inactive)
same,GI50,UO-31,78.5 µM (inactive)
same,GI50,RXF 393,24.9 µM (inactive)
same,GI50,BT-549,33.5 µM (inactive)
same,GI50,NCI-H23,31.8 µM (inactive)
same,GI50,OVCAR-5,38.3 µM (inactive)
same,GI50,MDA-N,29.6 µM (inactive)
same,GI50,IGROV-1,23.5 µM (inactive)
same,GI50,CCRF-CEM,56.8 µM (inactive)
same,GI50,NCI-H226,30.4 µM (inactive)
same,GI50,EKVX,25.8 µM (inactive)
same,GI50,786-0,33.2 µM (inactive)
same,GI50,HCT-116,49.3 µM (inactive)
same,GI50,HCT-15,25.6 µM
same,GI50,NCI-H460,35.7 µM (inactive)
same,GI50,ACHN,42.8 µM (inactive)
same,GI50,UACC-62,> 100 µM (inactive)
same,GI50,Hs-578T,19 µM (inactive)
same,GI50,SW-620,51.3 µM (inactive)
same,GI50,SF-295,35.5 µM (inactive)
same,GI50,CAKI-1,41.6 µM (inactive)
same,GI50,NCI/ADR-RES,41.2 µM (inactive)
same,GI50,OVCAR-8,53.1 µM (inactive)
same,GI50,M14,75 µM (inactive)
same,GI50,HT-29,29.6 µM (inactive)
same,GI50,KM12,30.4 µM (inactive)
same,GI50,Malme-3M,23 µM (inactive)
same,GI50,SF-268,27.5 µM (inactive)
same,GI50,PC-3,41.3 µM (inactive)
same,GI50,MOLT-4,24.3 µM (inactive)
same,GI50,NCI-H522,20.4 µM (inactive)
same,GI50,T47D,50.6 µM (inactive)
same,GI50,UACC-257,48.9 µM (inactive)
same,GI50,MDA-MB-435,85.1 µM (inactive)
same,GI50,HL-60,24.1 µM (inactive)
same,GI50,OVCAR-4,42.2 µM (inactive)
same,GI50,U-251,30.1 µM (inactive)
same,GI50,SN12C,32.6 µM (inactive)
same,GI50,SK-MEL-5,24 µM (inactive)
same,GI50,SK-MEL-2,46.7 µM (inactive)
same,GI50,OVCAR-3,26.1 µM (inactive)
same,GI50,SR,42.2 µM (inactive)
same,GI50,TK-10,> 100 µM (inactive)
same,GI50,SNB-19,> 100 µM (inactive)
O=C1C[C@H](c2ccccc2)C2(C(=O)c3ccccc3C2=O)[C@H](c2ccccc2)C1,GI50,SK-MEL-28,> 100 µM (inactive)
same,GI50,HOP-62,24.3 µM (inactive)
same,GI50,K562,> 100 µM (inactive)
same,GI50,DU-145,75 µM (inactive)
same,GI50,A498,> 100 µM (inactive)
same,GI50,MDA-MB-231,9.42 µM (inactive)
same,GI50,HOP-92,32.2 µM (inactive)
same,GI50,UO-31,> 100 µM (inactive)
same,GI50,RXF 393,12.1 µM (inactive)
same,GI50,BT-549,86.9 µM (inactive)
same,GI50,NCI-H23,> 100 µM (inactive)
same,GI50,OVCAR-5,> 100 µM (inactive)
same,GI50,MDA-N,85.7 µM (inactive)
same,GI50,IGROV-1,9.08 µM (inactive)
same,GI50,CCRF-CEM,> 100 µM (inactive)
same,GI50,NCI-H226,> 100 µM (inactive)
same,GI50,RPMI-8226,> 100 µM (inactive)
same,GI50,HCT-116,46.5 µM (inactive)
same,GI50,HCT-15,> 100 µM
same,GI50,SNB-75,27 µM (inactive)
same,GI50,NCI-H460,> 100 µM (inactive)
same,GI50,UACC-62,79.1 µM (inactive)
same,GI50,Hs-578T,29.8 µM (inactive)
same,GI50,SF-295,> 100 µM (inactive)
same,GI50,CAKI-1,> 100 µM (inactive)
same,GI50,NCI/ADR-RES,> 100 µM (inactive)
same,GI50,OVCAR-8,> 100 µM (inactive)
same,GI50,M14,> 100 µM (inactive)
same,GI50,HT-29,> 100 µM (inactive)
same,GI50,KM12,> 100 µM (inactive)
same,GI50,Malme-3M,> 100 µM (inactive)
same,GI50,PC-3,> 100 µM (inactive)
same,GI50,MOLT-4,61.2 µM (inactive)
same,GI50,NCI-H522,91 µM (inactive)
same,GI50,T47D,> 100 µM (inactive)
same,GI50,HCC 2998,> 100 µM (inactive)
same,GI50,SK-OV-3,19.5 µM (inactive)
same,GI50,MDA-MB-435,> 100 µM (inactive)
same,GI50,HL-60,> 100 µM (inactive)
same,GI50,OVCAR-4,> 100 µM (inactive)
same,GI50,U-251,> 100 µM (inactive)
same,GI50,SN12C,> 100 µM (inactive)
same,GI50,SK-MEL-5,63.1 µM (inactive)
same,GI50,SK-MEL-2,16.6 µM (inactive)
same,GI50,OVCAR-3,> 100 µM (inactive)
same,GI50,SR,> 100 µM (inactive)
same,GI50,COLO 205,88.7 µM (inactive)
same,GI50,SNB-19,> 100 µM (inactive)

# From ChEMBL document CHEMBL1201862, “PubChem BioAssay data set” (2004)
